Laboratory results taken from US10597388B2, “Pyridazinone herbicides” (FMC CORPORATION, priority 2014, dated 2020).

Legend:
Assay type in all cases: in vivo
[1] = tested on: oilseed rape (Brassica napus); assay: Test C greenhouse herbicide test, pre- and postemergence
Method in brief: (§1)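 Seeds sown in loam–sand blend treated preemergence; plants in peat-based medium sprayed postemergence at 2–18 cm (1- to 4-leaf stage); chemicals in non-phytotoxic solvent with surfactant. Greenhouse 13–15 d, then visual rating versus controls on 0–100 scale (0 no effect, 100 complete control).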

[2] = tested on: nutsedge, yellow (yellow nutsedge, Cyperus esculentus); assay: as above
Method in brief: as §1

[3] = tested on: velvetleaf (Abutilon theophrasti); assay: as above
Method in brief: as §1

[4] = tested on: galium (catchweed bedstraw, Galium aparine); assay: as above
Method in brief: as §1

corn (Zea mays) = assay: Test A greenhouse herbicide test, pre- and postemergence; conditions: Postemergence
Method in brief: (§2)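 Seeds in loam–sand blend received a preemergence directed soil spray; plants at 2–10 cm, one- to two-leaf stage, received postemergence sprays. Compounds in a non-phytotoxic solvent with surfactant. After about 10 d in a greenhouse, injury rated visually versus untreated controls on a 0–100 scale (100 = complete control).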

[5] = tested on: foxtail, giant (giant foxtail, Setaria faberii); assay: as above
Method in brief: as §2

kochia (Kochia scoparia) = assay: as above
Method in brief: as §2

[6] = tested on: pigweed (Amaranthus retroflexus); assay: as above
Method in brief: as §2

[7] = tested on: wheat (Triticum aestivum); assay: as above; conditions: Postemergence
Method in brief: as §2

[8] = tested on: ryegrass, Italian (Italian ryegrass, Lolium multiflorum); assay: as above
Method in brief: as §2

[9] = tested on: ragweed (common ragweed, Ambrosia elatior); assay: as above
Method in brief: as §2

[10] = Postemergence, 31 g ai/ha, scale 0 to 100 (0 no effect, 100 complete control)
[11] = Postemergence, 62 g ai/ha, 0 to 100 scale (0 no effect, 100 complete control)
[12] = Postemergence, 250 g ai/ha, scale 0 to 100, 0 no effect, 100 complete control, 13 to 15 d
[13] = Preemergence, 31 g ai/ha, scale 0 to 100, 0 is no effect, 100 is complete control
[14] = Preemergence, 62 g ai/ha, scale 0 to 100, 0 is no effect, 100 is complete control
[15] = Preemergence, 125 g ai/ha, scale 0 to 100, 0 is no effect, 100 is complete control
[16] = Preemergence, 250 g ai/ha, scale 0 to 100 (0 no effect, 100 complete control)
[17] = postemergence, 125 g ai/ha, scale 0 to 100, 0 no effect, 100 complete control
[18] = 125 g ai/ha, 0 to 100 scale where 0 is no effect and 100 is complete control
[19] = 500 g ai/ha, visual rating after approx. 10 d, 0 to 100 scale (0 no effect, 100 complete control)
[20] = Postemergence, 125 g ai/ha, 0 to 100 scale where 0 is no effect and 100 is complete control
[21] = Postemergence, 500 g ai/ha, visual rating after approx. 10 d, 0 to 100 scale (0 no effect, 100 complete control)
[22] = Preemergence, 125 g ai/ha, 0 to 100 scale where 0 is no effect and 100 is complete control
[23] = Preemergence, 500 g ai/ha, 0 to 100 scale where 0 is no effect and 100 is complete control

CCC(=O)Oc1c(C)nn(C)c(=O)c1-c1ccc(Br)c2ccccc12 [Compound 133]
90: Plant response rating, Oilseed Rape [1, 15] | Oilseed Rape plant response rating [1, 16] | Nutsedge, Yellow plant response rating [2, 11] | Velvetleaf plant response rating [3, 11] | Plant response rating, Velvetleaf [3, 14] | Plant response rating, Velvetleaf [3, 15] | Plant response rating, Galium [4, 10] | Plant response rating, Foxtail, Giant [5, 21] | Plant response rating, Kochia (kochia (Kochia scoparia); [20]) | Plant response rating, Pigweed [6, 20] | Ragweed plant response rating [9, 22]
75: Plant response rating, Nutsedge, Yellow [2, 10]
40: Foxtail, Giant plant response rating [5, 22] | Kochia plant response rating (kochia (Kochia scoparia); [22])
95: Plant response rating, Oilseed Rape [1, 10] | Nutsedge, Yellow plant response rating [2, 16] | Nutsedge, Yellow plant response rating [2, 17] | Galium plant response rating [4, 11] | Plant response rating, Galium [4, 13] | Plant response rating, Galium [4, 14]
55: Plant response rating, Nutsedge, Yellow [2, 14] | Plant response rating, Velvetleaf [3, 13]
30: Plant response rating, Wheat [7, 19]
70: Plant response rating, Nutsedge, Yellow [2, 15] | Plant response rating, Foxtail, Giant [5, 23]
10: Plant response rating, Corn (corn (Zea mays); [18])
100: Plant response rating, Velvetleaf [3, 12] | Velvetleaf plant response rating [3, 16] | Velvetleaf plant response rating [3, 17] | Plant response rating, Galium [4, 12] | Plant response rating, Galium [4, 15] | Galium plant response rating [4, 16] | Plant response rating, Kochia (kochia (Kochia scoparia); [21]) | Plant response rating, Kochia (kochia (Kochia scoparia); [23]) | Plant response rating, Pigweed [6, 21] | Plant response rating, Pigweed [6, 23] | Plant response rating, Ryegrass, Italian [8, 20] | Plant response rating, Ryegrass, Italian [8, 21] | Ryegrass, Italian plant response rating [8, 22] | Plant response rating, Ryegrass, Italian [8, 23] | Plant response rating, Ragweed [9, 20] | Plant response rating, Ragweed [9, 21] | Plant response rating, Ragweed [9, 23]
20: Plant response rating, Nutsedge, Yellow [2, 13] | Plant response rating, Foxtail, Giant [5, 20] | Plant response rating, Wheat [7, 18]
5: Plant response rating, Oilseed Rape [1, 13]
98: Oilseed Rape plant response rating [1, 11] | Plant response rating, Oilseed Rape [1, 12] | Oilseed Rape plant response rating [1, 17] | Plant response rating, Nutsedge, Yellow [2, 12] | Galium plant response rating [4, 17]
85: Plant response rating, Oilseed Rape [1, 14] | Plant response rating, Velvetleaf [3, 10]
80: Pigweed plant response rating [6, 22]
50: Plant response rating, Corn (corn (Zea mays); [19])

COC(=O)Oc1c(Br)nn(C)c(=O)c1-c1c(C)ccc2ccccc12 [Compound 137]
30: Plant response rating, Corn (corn (Zea mays); [18]) | Kochia plant response rating (kochia (Kochia scoparia); [22])
95: Plant response rating, Oilseed Rape [1, 10] | Nutsedge, Yellow plant response rating [2, 16] | Plant response rating, Velvetleaf [3, 12] | Plant response rating, Galium [4, 12]
55: Plant response rating, Nutsedge, Yellow [2, 13]
90: Plant response rating, Oilseed Rape [1, 14] | Oilseed Rape plant response rating [1, 16] | Plant response rating, Nutsedge, Yellow [2, 12] | Plant response rating, Nutsedge, Yellow [2, 15] | Velvetleaf plant response rating [3, 11] | Velvetleaf plant response rating [3, 17] | Galium plant response rating [4, 11] | Galium plant response rating [4, 17] | Foxtail, Giant plant response rating [5, 22] | Plant response rating, Wheat [7, 19] | Ragweed plant response rating [9, 22]
80: Plant response rating, Velvetleaf [3, 13]
50: Plant response rating, Oilseed Rape [1, 15] | Plant response rating, Wheat [7, 18]
85: Nutsedge, Yellow plant response rating [2, 11] | Plant response rating, Nutsedge, Yellow [2, 14] | Nutsedge, Yellow plant response rating [2, 17] | Plant response rating, Velvetleaf [3, 10] | Plant response rating, Galium [4, 10]
98: Oilseed Rape plant response rating [1, 11] | Plant response rating, Oilseed Rape [1, 12] | Oilseed Rape plant response rating [1, 17] | Plant response rating, Galium [4, 13] | Plant response rating, Galium [4, 14] | Plant response rating, Galium [4, 15]
70: Plant response rating, Corn (corn (Zea mays); [19])
65: Plant response rating, Nutsedge, Yellow [2, 10]
0: Plant response rating, Oilseed Rape [1, 13]
100: Plant response rating, Velvetleaf [3, 14] | Plant response rating, Velvetleaf [3, 15] | Velvetleaf plant response rating [3, 16] | Galium plant response rating [4, 16] | Plant response rating, Foxtail, Giant [5, 20] | Plant response rating, Foxtail, Giant [5, 21] | Plant response rating, Foxtail, Giant [5, 23] | Plant response rating, Kochia (kochia (Kochia scoparia); [20]) | Plant response rating, Kochia (kochia (Kochia scoparia); [21]) | Plant response rating, Kochia (kochia (Kochia scoparia); [23]) | Plant response rating, Pigweed [6, 20] | Plant response rating, Pigweed [6, 21] | Pigweed plant response rating [6, 22] | Plant response rating, Pigweed [6, 23] | Plant response rating, Ryegrass, Italian [8, 20] | Plant response rating, Ryegrass, Italian [8, 21] | Ryegrass, Italian plant response rating [8, 22] | Plant response rating, Ryegrass, Italian [8, 23] | Plant response rating, Ragweed [9, 20] | Plant response rating, Ragweed [9, 21] | Plant response rating, Ragweed [9, 23]
